Consider two compounds from US20200281923A1, “USE OF PARP INHIBITOR IN TREATING CHEMOTHERAPY-RESISTANT OVARIAN CANCER OR BREAST CANCER” (JIANGSU HENGRUI MEDICINE CO., LTD., priority 2017, published 2020).

Assay [1] deals with recurrent ovarian cancer. In words: Phase I clinical trial of compound A alone in recurrent chemotherapy-resistant ovarian cancer. The settings on record: daily dose of 120 mg. The class given is in vivo, human. The source says: Objective response rate (ORR) refers to the proportion of patients whose tumor shrinks to a certain extent and remains for a certain period of time, including cases of CR and PR. The response evaluation criteria in solid tumors (RECIST 1.1 criteria) are employed to assess tumor objective response. The subject must have measurable tumor lesions at baseline. The efficacy assessment criteria are classified into complete response (CR), partial response (PR), stable disease (SD), and progressive disease (PD) according to the RECIST 1.1 criteria.
Disease control rate (DCR) refers to the percentage of confirmed cases of complete response, partial response and stable disease (≥eight weeks) in patients with evaluable efficacy.
In the phase I clinical trial, the dose of compound A was 120 mg/d and above. 23 patients with recurrent ovarian cancer diagnosed by histology or cytology, who had received standard treatment failure, were enrolled. These patients had been subjected to at least second-line systemic chemotherapy during the recurrence and metastasis stage of ovarian cancer. The chemotherapy regimen was a platinum-based chemotherapy regimen. These patients were platinum-based treatment-resistant, or were intolerant to the chemotherapy toxicity during the treatment.
Compound A: the initial dose was 10 mg, 20 mg, 40 mg, 60 mg, 80 mg, 100 mg or 150 mg, administrated orally twice a day; or 120 mg or 160 mg, administrated orally once a day.

Assay [2] relates to advanced prostate cancer. The settings on record: advanced prostate cancer patients with DNA repair gene mutations; phase II clinical trial; cited from earlier work.
[3] abbreviates: platinum-resistant ovarian cancer without BRCA mutations, 13 cases.
[4] abbreviates: recurrent platinum-resistant ovarian cancer, 22 evaluable cases out of 23.

For `O=C(c1cc(Cc2n[nH]c(=O)c3ccccc23)ccc1F)N1CCn2nc(C(F)(F)F)nc2C1` [compound A], the “disease control rate (DCR)” value is listed as 84.6% in assay [1] (setting [3]) and 81.8% in assay [1] (setting [4]). Moreover, the entries for the “objective response rate (ORR)” value in assay [1] (setting [3]) and in assay [1] (setting [4]) were 15.4% and 18.2%, respectively.

In the case of `O=C(c1cc(Cc2n[nH]c(=O)c3ccccc23)ccc1F)N1CCN(C(=O)C2CC2)CC1` [Olaparib], in assay [2], the response is 88%.
